Assay results as given in article PMC3460729, “Innate immune properties of selected human neuropeptides against Moraxella catarrhalis and nontypeable Haemophilus influenzae” (BMC Immunology, 2012).
Marks after values point to notes of the source that are not given here.

Tests used:
human PMNs [1] = experiment: PMA-induced chemiluminescence in PMNs; format: cell-based; details: 0.1 μM PMA, 0 to 60 min; five independent experiments in triplicate, 5 donors
Method: Reactive oxygen species (ROS) formation by PMNs was measured using luminol-dependent chemiluminescence assay (CL) in white flat-bottom 96-well microplates (NUNC, Denmark). The reaction mixture of total volume 200 μl in each well contained: 100 μl of PMN suspension in HBSS–Ca^++Mg^++ (10^5 cells/well), 40 μl of luminol (50 μM/well), 40 μl of fMLP (0.2 μM/well), 20 μl of particular NP (in the range 10^−12–10^−8 M/well). In other experiments, the respiratory burst was triggered by phagocytosis of 40 μl heat killed (56°C/30 min) M. catarrhalis ATCC 25238 or H. influenzae ATCC 49247 at concentration of ½ of OD600 = 1 or OD600 = 1, respectively. […] The PMA stimulus at 0.1 μM final concentration was used as positive control of the relevant oxidative stress. The CL kinetics was measured at constant 37°C temperature using luminometer (Microlumat, LB96P, Berthold) and recorded as relative light units (RLU). Measuring conditions for fMLP were: interval (46 s), run time (up to 30 min). The conditions for bacterial and PMA stimulation were: interval (83 s), run time (up to 60 min). The maximal value of CL response curve was expressed as peak height (PHCL) for fMLP stimulant. In other cases the area under chemiluminescence curve (AUCCL) was calculated. Each sample was run in triplicate and the values were averaged. […] Results were expressed as mean ± SD. […]

E. coli ML-35p = experiment: ONPG-mediated β-galactosidase membrane permeability assay; format: cell-based, Escherichia coli; details: for time of maximal OD increase (ONPG influx): 100 μM neuropeptide; for ID50 (inducible dose) for intracellular influx of ONPG: dose causing 50% increase in OD405 in reference to chloroform-inducible maximum at 45 min, 10^6 CFU/ml, NaPB pH 7.4, 3 mM ONPG, 37°C, triplicate
Method: To measure the activity of neuropeptides in permeabilization of bacterial membrane, the ONPG-mediated β-galactosidase microplate assay was used. Permeabilization was measured using E. coli ML-35 with constitutive cytoplasmic β-galactosidase activity as previously described. Briefly, 18 h E. coli ML-35p in TSB was recultivated in TSB until mid-log phase (OD600 = 0.5). Flasks were put on ice for 20 min, and 2 ml of bacterial suspensions were transferred to Eppendorf tubes, washed twice with 10 mM sodium phosphate NaPB (pH 7.4) and suspended in NaPB to OD600 = 0.5. […] Microplates were incubated at 37°C for 1.5 h and optical densities were measured every 15 minutes at λ=405 nm (spectrophotometer Opsys MR Dynex Technologist). All the assays were performed in triplicate. Two positive controls were used: polymyxin B at the final concentration of 1 μg/ml as an established model of peptide permeabilizing action, and 20% chloroform (v/v). […] The molar concentration of NP that caused such increase was extrapolated from a linear portion of NP titration curve. Negative controls constituted bacteria incubated with NaPB and ONPG but without neuropeptides.

[2] = test system: nontypeable H. influenzae NTHi3, NTHi6; experiment: Time kill assay from 0 to 1.5 h; format: cell-based, Haemophilus influenzae; details: 100 μM, clinical isolates of H. influenzae
Method: (§1) For the time kill assay from 0 to 1.5 h, overnight cultures of Mc and NTHi were inoculated into new medium and incubated under the relevant conditions until early log-phase (OD600 = 0.25–0.3). The bacteria were diluted in 10 mM sodium phosphate buffer, NaPB, (pH 7.4) containing 1% (w/v) BHI to obtain ~2 x 10^6 CFU/ml. […] After each time of incubation the suspensions were 10-fold serially diluted with 10 mM NaPB-1% BHI and 20 μl aliquots were plated in triplicate on BHI (M. catarrhalis) or HAEM (H. influenzae) agar plates. The plates were incubated overnight at 37°C in 5% CO2 conditions. Simultaneously, the incubation of bacteria in the presence of an appropriate diluent was included for positive control of bacterial growth. The colony counts and CFU/ml were calculated next day. The bactericidal activity of neuropeptides was expressed as survival ratios determined as the numbers of CFU after neuropeptide incubation divided by the numbers of CFU estimated from a control plate (time 0). All antimicrobial assays were performed at least two times in triplicate.

M. catarrhalis Mc5, Mc6 = experiment: Time kill assay from 0 to 1.5 h; format: cell-based, Moraxella catarrhalis; details: 100 μM
Method: as §1

[3] = test system: human PMNs stimulated with M. catarrhalis ATCC 25238; experiment: M. catarrhalis-stimulated ROS generation by PMNs, luminol-dependent chemiluminescence; format: cell-based; details: 10^−8 M NP, nonopsonized M. catarrhalis; mean ± SD, n = 5-6 donors
Method: (§2) Polymorphonuclear leukocytes (PMNs) from healthy young adult volunteers were isolated from venous blood samples anticoagulated with Lithium-heparin (7.5 ml) by ficoll (Aqua-Med, Poland) density gradient centrifugation (2000 rpm/30 min), followed by hypotonic lysis of erythrocytes with a lysing buffer (0.83% NH4Cl, 0.1% KHCO3, EDTA, pH 7.4). After two washes (1400 rpm/10 min) in PBS, PMNs were resuspended to the final concentration of […] cells/ml in phagocytic buffer: HBSS with Ca^++ and Mg^++ supplemented with 1% HiFBS. The purity of granulocyte suspensions was checked using 15 μg/ml of acridine orange. […] Isolated PMNs were kept for 30 min at 37°C and 5% CO2 until used.
Reactive oxygen species (ROS) formation by PMNs was measured using luminol-dependent chemiluminescence assay (CL) in white flat-bottom 96-well microplates (NUNC, Denmark). The reaction mixture of total volume 200 μl in each well contained: 100 μl of PMN suspension in HBSS–Ca^++Mg^++ (10^5 cells/well), 40 μl of luminol (50 μM/well), 40 μl of fMLP (0.2 μM/well), 20 μl of particular NP (in the range 10^−12–10^−8 M/well). […] The maximal value of CL response curve was expressed as peak height (PHCL) for fMLP stimulant. In other cases the area under chemiluminescence curve (AUCCL) was calculated. […] Results were expressed as mean ± SD.

human PMNs [4] = experiment: fMLF-induced ROS generation by PMNs, luminol-dependent chemiluminescence; format: cell-based; details: for ROS release [% of control]: 0.2 μM fMLF, peak height PHCL, mean of three independent experiments
Method: as §2
Reactive oxygen species (ROS) formation by PMNs was measured using luminol-dependent chemiluminescence assay (CL) in white flat-bottom 96-well microplates (NUNC, Denmark). The reaction mixture of total volume 200 μl in each well contained: 100 μl of PMN suspension in HBSS–Ca^++Mg^++ (10^5 cells/well), 40 μl of luminol (50 μM/well), 40 μl of fMLP (0.2 μM/well), 20 μl of particular NP (in the range 10^−12–10^−8 M/well). In other experiments, the respiratory burst was triggered by phagocytosis of 40 μl heat killed (56°C/30 min) M. catarrhalis ATCC 25238 or H. influenzae ATCC 49247 at concentration of ½ of OD600 = 1 or OD600 = 1, respectively. […] The PMA stimulus at 0.1 μM final concentration was used as positive control of the relevant oxidative stress. The CL kinetics was measured at constant 37°C temperature using luminometer (Microlumat, LB96P, Berthold) and recorded as relative light units (RLU). Measuring conditions for fMLP were: interval (46 s), run time (up to 30 min). The conditions for bacterial and PMA stimulation were: interval (83 s), run time (up to 60 min). The maximal value of CL response curve was expressed as peak height (PHCL) for fMLP stimulant. In other cases the area under chemiluminescence curve (AUCCL) was calculated. Each sample was run in triplicate and the values were averaged. […] Results were expressed as mean ± SD.

| Compound | log10 of mean AUCCL ± SEM (human PMNs [1]) | time of maximal OD increase (ONPG influx) (E. coli ML-35p) [min] | ID50 (inducible dose) for intracellular influx of ONPG (E. coli ML-35p) [µM] | type of antibacterial activity [2] | type of antibacterial activity (M. catarrhalis Mc5, Mc6; both Mc strains) | increase of mean AUCCL [3] [%] | ROS release [% of control] (human PMNs [4]; 10^-8 M NP) | ROS release [% of control] (human PMNs [4]; 10^-10 M NP) | ROS release [% of control] (human PMNs [4]; 10^-12 M NP) | activation of respiratory burst of PMNs (human PMNs [4]; neuropeptide alone, without stimulus) | culture survived (M. catarrhalis Mc5, Mc6; Mc5 and Mc6, 0.5 h) [%] |
| --- | --- | --- | --- | --- | --- | --- | --- | --- | --- | --- | --- |
| CCCCCCCCCCCCCC(=O)O[C@@H]1[C@@H](C)[C@@]2(O)[C@@H](C=C(CO)C[C@]3(O)C(=O)C(C)=C[C@@H]23)[C@@H]2C(C)(C)[C@]12OC(C)=O [PMA, phorbol myristate acetate] | 6.05 ± 4.32 |  |  |  |  |  |  |  |  |  |  |
| C[C@H](N)C(=O)NCC(=O)N[C@H]1CSSC[C@@H](C(=O)O)NC(=O)[C@H](CO)NC(=O)[C@H]([C@@H](C)O)NC(=O)[C@H](Cc2ccccc2)NC(=O)[C@H]([C@@H](C)O)NC(=O)[C@H](CCCCN)NC(=O)[C@H](Cc2c[nH]c3ccccc23)NC(=O)[C@H](Cc2ccccc2)NC(=O)[C@H](Cc2ccccc2)NC(=O)[C@H](CC(N)=O)NC(=O)[C@H](CCCCN)NC1=O [SOM, somatostatin] |  | 90 | 104.1 | bacteriostatic | bacteriostatic |  |  |  |  |  |  |
| CSCC[C@H](NC(=O)[C@H](CC(C)C)NC(=O)CNC(=O)[C@H](Cc1ccccc1)NC(=O)[C@H](Cc1ccccc1)NC(=O)[C@H](CCC(N)=O)NC(=O)[C@H](CCC(N)=O)NC(=O)[C@@H]1CCCN1C(=O)[C@H](CCCCN)NC(=O)[C@@H]1CCCN1C(=O)[C@@H](N)CCCNC(=N)N)C(N)=O [SP, substance P] |  | 90 | 29.2 |  |  | 14.2 ± 3.4 | 179.18^a % of control | 160.36^a % of control | 140.83^a % of control | did not activate | ~100 |
